Columns and labels:
[1] = tested on: mice model of IgA nephropathy (IgAN); experiment: IHC of renal tissue for infiltrating leukocytes and Collagen IV in IgAN mice; type: in vivo; conditions: day 28, 60 mg/kg daily oral gavage
Description: (§1) B-cell-deficient mice were obtained from the Academia Sinica (Professor John T. Kung, Institute of Molecular Biology, Taipei, Taiwan) and maintained at the animal center of the National Defense Medical Center (Taipei, Taiwan). IgAN was induced by daily injection of purified IgA anti-phosphorylcholine antibodies and pneumococcal C-polysaccharide antigen (PnC). All animal experiments were performed with the approval of the Institutional Animal Care and Use Committee of the National Defense Medical Center and complied with the NIH Guide for the Care and Use of Laboratory Animals.
(§2) Ginsenoside M1, 20-O-β-D-glucopyranosyl-20(S)-protopariaxadiol (named LCHK168 below), was prepared by methods known in the art, such as those described in Taiwan Patent Application No. 094116005 (1280982) and U.S. Pat. No. 7,932,057. The mice were treated daily with 60 mg/kg LCHK168 or with the vehicle, by oral gavage throughout the experiment, the first dose being given 2 day before disease induction.
For IHC, formalin-fixed and paraffin-embedded tissue sections or frozen sections were incubated overnight at 4. C with anti-bodies against CD3, F4/80, CD4, CD8, CD11c, Collagen IV, diluted in DAKO antibody dilution buffer (DAKO), and then for 1 h at room temperature with horseradish peroxidase (HRP)-conjugated second antibodies (DAKO) in the same buffer; in the case of the HRP-conjugated antibodies, DAB (DAKO) was also added. Hematoxylin was used to counterstain nuclei. Positive cells was counted at a magnification of 400× in 20 consecutive glomeruli or in 20 randomly selected fields of the tubule interstitial compartment in the cortical area by Pax-It quantitative image analysis software.

Dendritic cells (DCs) = experiment: IgA-IC stimulated dendritic cell maturation by flow cytometry; type: cell-based, mouse; conditions: LCHK168 1, 2 μM, flow cytometry (FIG. 13)
Description: (§3) Dendritic cells (DCs) maturation was determined by the upregulation of costimulatory molecule expression. Cells were treated with IgA-IC, LCHK168 (1, 2 μM) and stained with mAbs specific for mouse CD40, CD80, and CD86 and then analyzed by flow cytometry.

[2] = tested on: reactive oxygen species (ROS); experiment: Measurement of reactive oxygen species (ROS) in renal tissue of IgAN mice; type: in vivo; conditions: vs disease control (FIG. 10)
Description: as §1
(§4) Ginsenoside M1, 20-O-β-D-glucopyranosyl-20(S)-protopariaxadiol (named LCHK168 below), was prepared by methods known in the art, such as those described in Taiwan Patent Application No. 094116005 (1280982) and U.S. Pat. No. 7,932,057. […]
To measure ROS levels in renal tissue, the samples were incubated at room temperature with Krebs-Hepes buffer containing 1.25 mM lucigenin (Sigma, St. Louis, Mo., USA) as substrate, and luminescence counts were measured in duplicate at 15-s intervals on a multilabel microplate reader (Hidex). ROS activity was expressed as relative luminescence units (RLU) per 15 minutes per milligram of organ dry weight (i.e., RLU/15 min/mg) or as RLU/15 min/ml.

memory CD4+ T cells = experiment: Flow cytometry of splenocytes for memory CD4+ T cells in IgAN mice; type: in vivo; conditions: 60 mg/kg daily oral gavage, vs disease control (FIG. 11)
Description: as §1, §4
Splenocytes from the mice were treated with Tris-buffered ammonium chloride to eliminate erythrocytes, washed and resuspended in RPMI1640 medium supplemented with 10% fetal calf serum, Hepes buffer, L-glutamine, and penicillin/streptomycin. The cells were triple-stained for activated T cell subtypes using FITC-conjugatedanti-mouse CD44, phycoerythrin-conjugated anti-mouse CD62 antibodies, and allophycocyanin-conjugated anti-mouse CD4 and analyzed using a FACSCalibur.

[3] = tested on: mice model of IgA nephropathy (IgAN); experiment: Urine protein and renal function in IgAN mice; type: in vivo
Description: as §1, §2
Body weight was measured weekly. Urine samples were collected in metabolic cages weekly and urine protein was determined. Serum samples were collected on days 14 and 28 to measure serum levels of blood urea nitrogen (BUN) and creatinine (Cr). For renal histopathology, the tissues were fixed in 10% buffered formalin and embedded in paraffin, and then sections (3 μm) were prepared and stained with hematoxylin and eosin (H&E). The percentage of glomeruli showing proliferation, neutrophil infiltration, sclerosis, or periglomerular inflammation was determined by counting 50 randomly sampled glomeruli by light microscopy at a magnification of 400×.

NLRP3 = experiment: Western blot of NLRP3 in IgA-IC stimulated DCs; type: cell-based, mouse; conditions: β-actin loading control (FIG. 14)
Description: as §3
Each protein sample was run on a 8% SDS-PAGE gel and the proteins were electro blotted on to a polyvinylidene difluoride membrane, which was then incubated for 1 h at room temperature in blocking buffer (Tris-buffered saline containing 5% skim milk) and then overnight at 4° C. with rabbit antibodies against NLRP3 or β-actin. After being washed, the membrane was incubated for 1 h at room temperature with HRP-conjugated goat anti-rabbit IgG antibody in the same buffer; then bound antibody was detected using UVP Biospectrum.

[4] = tested on: mice model of IgA nephropathy (IgAN); experiment: Renal histopathology (H&E) in IgAN mice; type: in vivo; conditions: day 28, 60 mg/kg daily oral gavage, vs disease control (FIG. 3)
Description: as §1, §2
Body weight was measured weekly. Urine samples were collected in metabolic cages weekly and urine protein was determined. […] The percentage of glomeruli showing proliferation, neutrophil infiltration, sclerosis, or periglomerular inflammation was determined by counting 50 randomly sampled glomeruli by light microscopy at a magnification of 400×.

TLR2 = experiment: Real-time RT-PCR of renal TLR2 mRNA in IgAN mice; type: in vivo; conditions: 60 mg/kg daily oral gavage
Description: as §1, §2
Renal cortex RNA was extracted using TRIzol reagent according to the manufacturer's instructions, and RT-PCR was used to measure TLR2 gene expression. […] Real-time quantification was performed using a Applied Biosystems according to the manufacturer's instructions. […]

[5] = day 14, 60 mg/kg daily oral gavage, between disease control, IgAN+LCHK168 and normal control

CC(C)=CCC[C@](C)(O[C@@H]1OC(CO)[C@@H](O)[C@@H](O)C1O)[C@H]1CC[C@]2(C)C1[C@H](O)CC1[C@@]3(C)CC[C@H](O)C(C)(C)C3CC[C@]12C (stereo partly drawn) [LCHK168, 20-O-β-D-glucopyranosyl-20(S)-protopanaxadiol]
renal infiltration of CD3+ T cells ([1]; vs disease control (FIG. 4)): significantly decreased | renal infiltration of F4/80+ monocytes/macrophages ([1]; vs disease control (FIG. 5)): significantly decreased | renal infiltration of CD4+ T cells ([1]; vs disease control (FIG. 6)): significantly decreased | renal infiltration of CD8+ T cells ([1]; vs disease control (FIG. 7)): significantly decreased | renal infiltration of CD11c+ dendritic cells ([1]; vs disease control (FIG. 8)): significantly decreased | renal fibrosis (Collagen IV staining) ([1]; vs disease control (FIG. 9)): significantly decreased | expression level of CD40 in DCs (Dendritic cells (DCs)): significantly lowered | expression level of CD80 in DCs (Dendritic cells (DCs)): significantly lowered | expression level of CD86 in DCs (Dendritic cells (DCs)): significantly lowered | increase in renal tissues ROS levels ([2]; day 14, 60 mg/kg daily oral gavage): greatly inhibited | increase in ROS levels in renal tissues ([2]; day 28, 60 mg/kg daily oral gavage): substantially inhibited | memory CD4+ T cells in splenocytes (memory CD4+ T cells): significant reduction | urine protein levels (ratio of urine protein to creatinine) ([3]; IgAN mice, 60 mg/kg daily oral gavage, day 14 to day 28, vs vehicle-treated disease control (FIG. 1)): markedly inhibited | proteinuria compared to normal untreated controls ([3]; IgAN mice, 60 mg/kg daily oral gavage, vs normal untreated controls (FIG. 1)): mild proteinuria | serum levels of BUN [3, 5]: no significant difference | serum levels of Cr [3, 5]: no significant difference | serum levels of BUN ([3]; day 28, 60 mg/kg daily oral gavage, vs disease control (FIG. 2A)): much better renal function | serum levels of Cr ([3]; day 28, 60 mg/kg daily oral gavage, vs disease control (FIG. 2B)): much better renal function | NLRP3 protein expression in DCs (NLRP3): significantly decreased | renal lesion (proliferation, crescents, sclerosis, neutrophil infiltration, periglomerular leukocyte infiltration, tubular atrophy) [4]: significantly inhibited | TLR2 mRNA levels in the kidney (relative to GAPDH) (TLR2; 14 days, difference vs IgAN control mice (FIG. 12)): not statistically significant | TLR2 mRNA levels in the kidney (relative to GAPDH) (TLR2; 28 days, vs IgAN control mice (FIG. 12)): significantly lower
